Assay results reported in PubChem BioAssay AID1963448 (Molecular Pharmacology Branch, DTP, NCI, 2024).

System: 616215-338-R-J1-PDC complex spheroid growth, % test/control
Experiment: Anticancer human tumor 616215-338-R-J1-PDC patient-derived colon adenocarcinoma cell line growth inhibition [Asc]
Details: for IC50: curve of first compound; for viability, T/C: stronger effect = lower value
Outline: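 Concentration series start at each agent's clinical Cmax, or at 10 microM when none is established, and drop in half-log steps; agents are applied alone or together to complex spheroids built with HUVEC and hMSC.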

[1] = second compound 0.1 µM, first compound 0.0316 µM
[2] = second compound 0.1 µM, first compound 0.1 µM
[3] = second compound 0.1 µM, first compound 0.316 µM
[4] = second compound 0.1 µM, first compound 1 µM
[5] = second compound 0.316 µM, first compound 0.0316 µM
[6] = second compound 0.316 µM, first compound 0.1 µM
[7] = second compound 0.316 µM, first compound 0.316 µM
[8] = second compound 0.316 µM, first compound 1 µM
[9] = second compound 1 µM, first compound 0.0316 µM
[10] = second compound 1 µM, first compound 0.1 µM
[11] = second compound 1 µM, first compound 0.316 µM
[12] = second compound 1 µM, first compound 1 µM
[13] = second compound 0.1 µM, first compound 0.00316 µM
[14] = second compound 0.1 µM, first compound 0.01 µM
[15] = second compound 0.316 µM, first compound 0.00316 µM
[16] = second compound 0.316 µM, first compound 0.01 µM
[17] = second compound 1 µM, first compound 0.00316 µM
[18] = second compound 1 µM, first compound 0.01 µM
[19] = second compound 3.16 µM, first compound 0.00316 µM
[20] = second compound 3.16 µM, first compound 0.01 µM
[21] = second compound 3.16 µM, first compound 0.0316 µM
[22] = second compound 3.16 µM, first compound 0.1 µM
[23] = second compound 3.16 µM, first compound 0.316 µM
[24] = second compound 3.16 µM, first compound 1 µM
[25] = second compound 10 µM, first compound 0.00316 µM
[26] = second compound 10 µM, first compound 0.01 µM
[27] = second compound 10 µM, first compound 0.0316 µM
[28] = second compound 10 µM, first compound 0.1 µM
[29] = second compound 10 µM, first compound 0.316 µM
[30] = second compound 10 µM, first compound 1 µM
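Note: spheroids exposed to agents for seven days before readout.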
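Throughout, for viability, T/C: 100% = DMSO vehicle control viability.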

SMILES: C#Cc1c(F)ccc2cc(O)cc(-c3ncc4c(N5CC6CCC(C5)N6)nc(OCC56CCCN5CC(F)C6)nc4c3F)c12 (configuration not stated) + CNC(C)C(=O)NC1CN(S(=O)(=O)c2cccc(S(=O)(=O)N3CCC4CCC(C(=O)NC(c5ccccc5)c5ccccc5)N4C(=O)C(NC(=O)C(C)NC)C3)c2)CCC2CCC(C(=O)NC(c3ccccc3)c3ccccc3)N2C1=O
- IC50 (second compound 0.00316 µM): 2.28 µM
- IC50 (second compound 0.01 µM): 2.49 µM
- IC50 (second compound 0.0316 µM): 3.76 µM
- IC50 (second compound 0.1 µM): 2.33 µM
- IC50 (second compound 0.316 µM): 2.72 µM
- IC50 (second compound 1 µM): 2.1 µM
- viability, T/C (second compound 0.00316 µM, first compound 0.0316 µM): 94.8%
- viability, T/C (second compound 0.00316 µM, first compound 0.1 µM): 104%
- viability, T/C (second compound 0.00316 µM, first compound 0.316 µM): 95.6%
- viability, T/C (second compound 0.00316 µM, first compound 1 µM): 100%
- viability, T/C (second compound 0.00316 µM, first compound 3.16 µM): 30.6%
- viability, T/C (second compound 0.00316 µM, first compound 10 µM): 6.11%
- viability, T/C (second compound 0.01 µM, first compound 0.0316 µM): 101%
- viability, T/C (second compound 0.01 µM, first compound 0.1 µM): 99.3%
- viability, T/C (second compound 0.01 µM, first compound 0.316 µM): 104%
- viability, T/C (second compound 0.01 µM, first compound 1 µM): 97.6%
- viability, T/C (second compound 0.01 µM, first compound 3.16 µM): 37.4%
- viability, T/C (second compound 0.01 µM, first compound 10 µM): 5.11%
- viability, T/C (second compound 0.0316 µM, first compound 0.0316 µM): 100%
- viability, T/C (second compound 0.0316 µM, first compound 0.1 µM): 95.7%
- viability, T/C (second compound 0.0316 µM, first compound 0.316 µM): 99.9%
- viability, T/C (second compound 0.0316 µM, first compound 1 µM): 104%
- viability, T/C (second compound 0.0316 µM, first compound 3.16 µM): 57.1%
- viability, T/C (second compound 0.0316 µM, first compound 10 µM): 9.6%
- viability, T/C [1]: 90.9%
- viability, T/C [2]: 102%
- viability, T/C [3]: 105%
- viability, T/C [4]: 89.4%
- viability, T/C (second compound 0.1 µM, first compound 3.16 µM): 35.7%
- viability, T/C (second compound 0.1 µM, first compound 10 µM): 4.68%
- viability, T/C [5]: 98.7%
- viability, T/C [6]: 102%
- viability, T/C [7]: 109%
- viability, T/C [8]: 89.9%
- viability, T/C (second compound 0.316 µM, first compound 3.16 µM): 44.2%
- viability, T/C (second compound 0.316 µM, first compound 10 µM): 6.83%
- viability, T/C [9]: 106%
- viability, T/C [10]: 86%
- viability, T/C [11]: 102%
- viability, T/C [12]: 104%
- viability, T/C (second compound 1 µM, first compound 3.16 µM): 22.4%
- viability, T/C (second compound 1 µM, first compound 10 µM): 3.39%

SMILES: CCN1CCN(Cc2ccc(Nc3ncc(F)c(-c4cc(F)c5nc(C)n(C(C)C)c5c4)n3)nc2)CC1 + Cc1c(S(C)(=O)=O)c(-c2cc(F)cc(N3CCN(c4ccc(NS(=O)(=O)c5ccc(NC(CCN6CCC(C(=O)OCCCP(=O)(O)O)CC6)CSc6ccccc6)c(S(=O)(=O)C(F)(F)F)c5)cc4)CC3)c2)c(-c2ccc(Cl)cc2)n1C(C)C
- IC50 (second compound 0.1 µM): > 1 µM
- IC50 (second compound 0.316 µM): > 1 µM
- IC50 (second compound 1 µM): > 1 µM
- IC50 (second compound 3.16 µM): < 0.00316 µM
- IC50 (second compound 10 µM): < 0.00316 µM
- viability, T/C [13]: 92.5%
- viability, T/C [14]: 89.3%
- viability, T/C [1]: 92.6%
- viability, T/C [2]: 96.5%
- viability, T/C [3]: 100%
- viability, T/C [4]: 129%
- viability, T/C [15]: 86%
- viability, T/C [16]: 84.9%
- viability, T/C [5]: 93.2%
- viability, T/C [6]: 99.7%
- viability, T/C [7]: 109%
- viability, T/C [8]: 130%
- viability, T/C [17]: 68.5%
- viability, T/C [18]: 75.8%
- viability, T/C [9]: 77.9%
- viability, T/C [10]: 78%
- viability, T/C [11]: 99.3%
- viability, T/C [12]: 95.9%
- viability, T/C [19]: 45.9%
- viability, T/C [20]: 52.7%
- viability, T/C [21]: 58.6%
- viability, T/C [22]: 69%
- viability, T/C [23]: 86.1%
- viability, T/C [24]: 54.8%
- viability, T/C [25]: 30%
- viability, T/C [26]: 32.9%
- viability, T/C [27]: 34%
- viability, T/C [28]: 39.4%
- viability, T/C [29]: 67.7%
- viability, T/C [30]: 24.7%

SMILES: O=C(c1ccc(F)c(F)c1Nc1ccc(I)cc1F)N1CC(O)([C@@H]2CCCCN2)C1 + Cc1c(S(C)(=O)=O)c(-c2cc(F)cc(N3CCN(c4ccc(NS(=O)(=O)c5ccc(NC(CCN6CCC(C(=O)OCCCP(=O)(O)O)CC6)CSc6ccccc6)c(S(=O)(=O)C(F)(F)F)c5)cc4)CC3)c2)c(-c2ccc(Cl)cc2)n1C(C)C
- IC50 (second compound 0.1 µM): 0.0644 µM
- IC50 (second compound 0.316 µM): 0.0584 µM
- IC50 (second compound 1 µM): 0.0383 µM
- IC50 (second compound 3.16 µM): < 0.00316 µM
- IC50 (second compound 10 µM): < 0.00316 µM
- viability, T/C [13]: 92.4%
- viability, T/C [14]: 91.7%
- viability, T/C [1]: 79.5%
- viability, T/C [2]: 32%
- viability, T/C [3]: 1.51%
- viability, T/C [4]: 0.8%
- viability, T/C [15]: 92.8%
- viability, T/C [16]: 91.9%
- viability, T/C [5]: 79.3%
- viability, T/C [6]: 24.4%
- viability, T/C [7]: 0.48%
- viability, T/C [8]: 0.95%
- viability, T/C [17]: 68%
- viability, T/C [18]: 70.4%
- viability, T/C [9]: 56%
- viability, T/C [10]: 17.4%
- viability, T/C [11]: 0.25%
- viability, T/C [12]: 2.24%
- viability, T/C [19]: 39.5%
- viability, T/C [20]: 34.9%
- viability, T/C [21]: 27.3%
- viability, T/C [22]: 2.89%
- viability, T/C [23]: 0.11%
- viability, T/C [24]: 0.23%
- viability, T/C [25]: 25.1%
- viability, T/C [26]: 21.5%
- viability, T/C [27]: 14.2%
- viability, T/C [28]: 0.19%
- viability, T/C [29]: 0.18%
- viability, T/C [30]: 0.36%
